According to patent US20060252807A1, “Novel ortho-terphenyl inhibitors of p38 kinase and methods of treating inflammatory disorders” (Kalypsys, Inc., priority 2005, published 2006):

Molecular target: T1, active p38 alpha enzyme (Upstate Biotechnology) (Homo sapiens, UniProt Q16539)
T1 construct: purchased Upstate Biotechnology
Assay: p38α biochemical assay (ATP turnover, luminescent detection, Cambrex PKlight)
Details: p38α kinase; Table 1 Biological Activity
Method in brief: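 Active human p38α was incubated with full-length MapkapK2 protein as substrate and 1.4 uM ATP (final) for 2 hours at 30C. Buffer: 200 mM Tris, 100 mM MgCl2, 1.5 mM EGTA, 4 mM CaCl2, 20 mM MOPS, 1 mM EDTA, 1% glycerol, 0.1% β-mercaptoethanol, 1 mg/ml BSA. Total ATP turnover read by luminescence.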

T1 sequence (Q16539 whole entry): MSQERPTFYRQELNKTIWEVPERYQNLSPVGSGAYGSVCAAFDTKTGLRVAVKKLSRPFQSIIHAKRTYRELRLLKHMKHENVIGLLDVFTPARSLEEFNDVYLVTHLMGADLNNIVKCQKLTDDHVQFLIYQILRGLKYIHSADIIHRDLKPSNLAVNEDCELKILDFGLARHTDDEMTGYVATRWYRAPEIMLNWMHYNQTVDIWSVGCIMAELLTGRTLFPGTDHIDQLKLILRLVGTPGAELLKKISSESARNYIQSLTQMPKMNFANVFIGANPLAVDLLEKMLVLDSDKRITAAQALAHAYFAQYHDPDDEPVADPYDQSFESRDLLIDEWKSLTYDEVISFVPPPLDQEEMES

Row | SMILES | IC50 [nM]
1 | Cc1cccc(NCc2onc(-c3ccc(F)cc3)c2-c2nc(C(=O)NC(C)C)cs2)n1 [Example 1635] | > 1000
2 | Cc1ccnc(NCc2onc(-c3ccc(F)cc3)c2-c2nc(C(=O)NC(C)C)cs2)c1 [Example 1636] | > 1000
3 | Cc1cccnc1NCc1onc(-c2ccc(F)cc2)c1-c1nc(C(=O)NC(C)C)cs1 [Example 1637] | > 1000
4 | CC(C)NC(=O)c1csc(-c2c(-c3ccc(F)cc3)noc2CNc2ccccc2F)n1 [Example 1638] | > 1000
5 | CC(C)NC(=O)c1csc(-c2c(-c3ccc(F)cc3)noc2CNc2ccc(F)cc2)n1 [Example 1639] | > 1000
6 | Cc1ccc(C)c(NCc2onc(-c3ccc(F)cc3)c2-c2nc(C(=O)NC(C)C)cs2)c1 [Example 1640] | > 1000
7 | Cc1ccc(NCc2onc(-c3ccc(F)cc3)c2-c2nc(C(=O)NC(C)C)cs2)cc1C [Example 1641] | > 1000
8 | CCc1ccccc1NCc1onc(-c2ccc(F)cc2)c1-c1nc(C(=O)NC(C)C)cs1 [Example 1642] | > 1000
9 | Cc1cccc(NCc2onc(-c3ccc(F)cc3)c2-c2nc(C(=O)NC(C)C)cs2)c1C [Example 1644] | > 1000
10 | Cc1ccc(NCc2onc(-c3ccc(F)cc3)c2-c2nc(C(=O)NC(C)C)cs2)c(C)c1 [Example 1645] | > 1000
11 | Cc1cc(C)cc(NCc2onc(-c3ccc(F)cc3)c2-c2nc(C(=O)NC(C)C)cs2)c1 [Example 1646] | > 1000
12 | COc1cccc(NCc2onc(-c3ccc(F)cc3)c2-c2nc(C(=O)NC(C)C)cs2)c1 [Example 1647] | > 1000
13 | COc1ccc(NCc2onc(-c3ccc(F)cc3)c2-c2nc(C(=O)NC(C)C)cs2)cc1 [Example 1648] | > 1000
14 | COc1ccccc1NCc1onc(-c2ccc(F)cc2)c1-c1nc(C(=O)NC(C)C)cs1 [Example 1649] | > 1000
15 | COc1ccncc1NCc1onc(-c2ccc(F)cc2)c1-c1nc(C(=O)NC(C)C)cs1 [Example 1650] | > 1000
16 | Cc1ccc(NCc2onc(-c3ccc(F)cc3)c2-c2nc(C(=O)NC(C)C)cs2)cc1F [Example 1651] | > 1000
17 | Cc1c(F)cccc1NCc1onc(-c2ccc(F)cc2)c1-c1nc(C(=O)NC(C)C)cs1 [Example 1652] | > 1000
18 | CC(C)NC(=O)c1csc(-c2c(-c3ccc(F)cc3)noc2CNc2cc(F)cc(F)c2)n1 [Example 1653] | > 1000
19 | CC(C)NC(=O)c1csc(-c2c(-c3ccc(F)cc3)noc2CNc2ccc(F)cc2F)n1 [Example 1654] | > 1000
20 | CC(C)NC(=O)c1csc(-c2c(-c3ccc(F)cc3)noc2CNc2ccc3c(c2)CCC3)n1 [Example 1656] | > 1000
21 | CC(C)NC(=O)c1csc(-c2c(-c3ccc(F)cc3)noc2CNc2ccccc2C(C)C)n1 [Example 1657] | > 1000
22 | CC(=O)c1cccc(NCc2onc(-c3ccc(F)cc3)c2-c2nc(C(=O)NC(C)C)cs2)c1 [Example 1658] | ≤ 1000
23 | CC(=O)c1ccc(NCc2onc(-c3ccc(F)cc3)c2-c2nc(C(=O)NC(C)C)cs2)cc1 [Example 1659] | > 1000
24 | CCc1cccc(C)c1NCc1onc(-c2ccc(F)cc2)c1-c1nc(C(=O)NC(C)C)cs1 [Example 1660] | > 1000
25 | Cc1cc(C)c(NCc2onc(-c3ccc(F)cc3)c2-c2nc(C(=O)NC(C)C)cs2)c(C)c1 [Example 1661] | > 1000

Row | SMILES | IC50 [nM]
26 | CC(C)NC(=O)c1csc(-c2c(-c3ccc(F)cc3)noc2CNc2ccc3c(c2)OCO3)n1 [Example 1662] | > 1000
27 | COc1ccc(NCc2onc(-c3ccc(F)cc3)c2-c2nc(C(=O)NC(C)C)cs2)c(C)c1 [Example 1663] | > 1000
28 | CCOc1cccc(NCc2onc(-c3ccc(F)cc3)c2-c2nc(C(=O)NC(C)C)cs2)c1 [Example 1664] | > 1000
29 | CCOc1ccccc1NCc1onc(-c2ccc(F)cc2)c1-c1nc(C(=O)NC(C)C)cs1 [Example 1665] | > 1000
30 | CSc1ccccc1NCc1onc(-c2ccc(F)cc2)c1-c1nc(C(=O)NC(C)C)cs1 [Example 1666] | > 1000
31 | Cc1c(Cl)cccc1NCc1onc(-c2ccc(F)cc2)c1-c1nc(C(=O)NC(C)C)cs1 [Example 1667] | > 1000
32 | Cc1ccc(NCc2onc(-c3ccc(F)cc3)c2-c2nc(C(=O)NC(C)C)cs2)cc1Cl [Example 1668] | > 1000
33 | CC(C)NC(=O)c1csc(-c2c(-c3ccc(F)cc3)noc2CNc2cnc3ccccc3c2)n1 [Example 1669] | > 1000
34 | CC(C)NC(=O)c1csc(-c2c(-c3ccc(F)cc3)noc2CNc2cc(F)c(F)cc2F)n1 [Example 1670] | > 1000
35 | CC(C)NC(=O)c1csc(-c2c(-c3ccc(F)cc3)noc2CNC2CCCc3ccccc32)n1 (stereo not drawn) [Example 1671] | > 1000
36 | CC(C)NC(=O)c1csc(-c2c(-c3ccc(F)cc3)noc2CNc2ccccc2C(C)(C)C)n1 [Example 1672] | > 1000
37 | Cc1cccc(C(C)C)c1NCc1onc(-c2ccc(F)cc2)c1-c1nc(C(=O)NC(C)C)cs1 [Example 1673] | > 1000
38 | CC(C)NC(=O)c1csc(-c2c(-c3ccc(F)cc3)noc2CNc2ccc3ncsc3c2)n1 [Example 1674] | > 1000
39 | CC(=O)Nc1ccc(NCc2onc(-c3ccc(F)cc3)c2-c2nc(C(=O)NC(C)C)cs2)cc1 [Example 1675] | > 1000
40 | CC(=O)Nc1ccc(NCc2onc(-c3ccc(F)cc3)c2-c2nc(C(=O)NC(C)C)cs2)cn1 [Example 1676] | > 1000
41 | CC(C)NC(=O)c1csc(-c2c(-c3ccc(F)cc3)noc2CNc2ccc3c(c2)OCCO3)n1 [Example 1677] | > 1000
42 | CC(C)NC(=O)c1csc(-c2c(-c3ccc(F)cc3)noc2CNc2ccccc2-n2cccc2)n1 [Example 1679] | > 1000
43 | CC(C)NC(=O)c1csc(-c2c(-c3ccc(F)cc3)noc2CNc2ccc(C(F)(F)F)cc2)n1 [Example 1680] | > 1000
44 | CC(C)NC(=O)c1csc(-c2c(-c3ccc(F)cc3)noc2CNc2cccc(C(F)(F)F)c2)n1 [Example 1681] | > 1000
45 | CC(C)NC(=O)c1csc(-c2c(-c3ccc(F)cc3)noc2CNc2ccc(Cl)c(Cl)c2)n1 [Example 1682] | > 1000
46 | Cc1cccc(C(C)(C)C)c1NCc1onc(-c2ccc(F)cc2)c1-c1nc(C(=O)NC(C)C)cs1 [Example 1683] | > 1000
47 | CC(C)NC(=O)c1csc(-c2c(-c3ccc(F)cc3)noc2CNc2ccc(N(C)C)cc2)n1 [Example 1684] | > 1000
48 | CC(C)NC(=O)c1csc(-c2c(-c3ccc(F)cc3)noc2CNc2ccccc2-c2ccccc2)n1 [Example 1685] | > 1000
49 | CC(C)NC(=O)c1csc(-c2c(-c3ccc(F)cc3)noc2CNc2ccc(OC(F)(F)F)cc2)n1 [Example 1686] | > 1000
50 | CC(C)NC(=O)c1csc(-c2c(-c3ccc(F)cc3)noc2CNc2c(C(C)C)cccc2C(C)C)n1 [Example 1687] | > 1000

Row | SMILES | IC50 [nM]
51 | CC(C)NC(=O)c1csc(-c2c(-c3ccc(F)cc3)noc2CNc2ccc(F)cc2C(F)(F)F)n1 [Example 1688] | > 1000
52 | CC(C)NC(=O)c1csc(-c2c(-c3ccc(F)cc3)noc2CNc2cc(C(F)(F)F)ccc2F)n1 [Example 1689] | > 1000
53 | CC(C)NC(=O)c1csc(-c2c(-c3ccc(F)cc3)noc2CNc2ccc(F)c(C(F)(F)F)c2)n1 [Example 1690] | > 1000
54 | CCOc1ccc(OCC)c(NCc2onc(-c3ccc(F)cc3)c2-c2nc(C(=O)NC(C)C)cs2)c1 [Example 1691] | > 1000
55 | CC(C)NC(=O)c1csc(-c2c(-c3ccc(F)cc3)noc2CNc2cc(Cl)c(Cl)c(Cl)c2)n1 [Example 1692] | > 1000
56 | CC(C)NC(=O)c1csc(-c2c(-c3ccc(F)cc3)noc2CNc2ccccc2C(=O)c2ccccc2)n1 [Example 1693] | > 1000
57 | CC(C)NC(=O)c1csc(-c2c(-c3ccc(F)cc3)noc2CNc2ccccc2COc2ccccc2)n1 [Example 1694] | > 1000
58 | COc1ccc(-c2ccccc2)cc1NCc1onc(-c2ccc(F)cc2)c1-c1nc(C(=O)NC(C)C)cs1 [Example 1695] | ≤ 1000
59 | CC(C)NC(=O)c1csc(-c2c(-c3ccc(F)cc3)noc2CNc2ncccc2OCc2ccccc2)n1 [Example 1696] | > 1000
60 | CC(C)NC(=O)c1csc(-c2c(-c3ccc(F)cc3)noc2CNc2cc(C(F)(F)F)ccc2C(F)(F)F)n1 [Example 1697] | > 1000
61 | CC(C)NC(=O)c1csc(-c2c(-c3ccc(F)cc3)noc2CNc2cc(C(F)(F)F)cc(C(F)(F)F)c2)n1 [Example 1698] | > 1000
62 | CC(C)NC(=O)c1csc(-c2c(-c3ccc(F)cc3)noc2CNc2ccc(C(F)(F)F)cc2C(F)(F)F)n1 [Example 1699] | > 1000
63 | CC(C)NC(=O)c1csc(-c2c(-c3ccc(F)cc3)noc2CBr)n1 [Example 1700] | > 1000
64 | Cc1nc(-c2ccc(F)cc2)c(-c2nc(C(=O)NC3CCCc4ccccc43)cs2)s1 (stereo not drawn) [Example 1701] | > 1000
65 | COc1ccc(NC(=O)c2csc(-c3sc(C)nc3-c3ccc(F)cc3)n2)cc1OC [Example 1702] | ≤ 1000
66 | Cc1nc(-c2ccc(F)cc2)c(-c2nc(C(=O)O)cs2)s1 [Example 1703] | > 1000
67 | Cc1nc(-c2ccc(F)cc2)c(-c2nc(C(=O)N(CCC#N)Cc3ccccc3)cs2)s1 [Example 1704] | > 1000
68 | CNC(=O)c1csc(-c2sc(C)nc2-c2ccc(F)cc2)n1 [Example 1705] | ≤ 1000
69 | CCNC(=O)c1csc(-c2sc(C)nc2-c2ccc(F)cc2)n1 [Example 1706] | ≤ 1000
70 | C#CCNC(=O)c1csc(-c2sc(C)nc2-c2ccc(F)cc2)n1 [Example 1707] | ≤ 1000
71 | Cc1nc(-c2ccc(F)cc2)c(-c2nc(C(=O)NCC#N)cs2)s1 [Example 1708] | ≤ 1000
72 | Cc1nc(-c2ccc(F)cc2)c(-c2nc(C(=O)NC3CC3)cs2)s1 [Example 1709] | > 1000
73 | CCCNC(=O)c1csc(-c2sc(C)nc2-c2ccc(F)cc2)n1 [Example 1710] | > 1000
74 | Cc1nc(-c2ccc(F)cc2)c(-c2nc(C(=O)NCCN)cs2)s1 [Example 1711] | > 1000
75 | Cc1nc(-c2ccc(F)cc2)c(-c2nc(C(=O)NCCO)cs2)s1 [Example 1712] | ≤ 1000
